In EP2277860B1, “Compositions comprising sulfonated estolides and alkyl ester sulfonates, methods of making them, and compositions and processes employing them” (STEPAN COMPANY, priority 2009, dated 2011):

Assay: CMC via the Wilhelmy plate technique
Format: physicochemical
Method: Not to be bound by theory, surfactants with low CMC values tend to be more mild to enzymes based on low monomer concentrations in solution which interfere with enzyme stability. The measured CMC, via the Wilhelmy plate technique, of SHP is 30 mg/L while that of the sodium salt of AES is 80 mg/L and NaLAS is 900 mg/L.

linear alkylbenzene sulfonic acid, sodium salt [NaLAS]
CMC: 900 mg/L
